Values joined by “and” are separate entries in the source; they are usually repeats but may differ in a detail not shown here. Equal entries are not always repeated. Where two headings read alike, the source gives them in different places.
Legend:
[1] = in vitro; conditions: African green monkey
[2] = in vitro; conditions: human
[3] = system: SARS‐CoV‐2; assay: microbe, parasite or virus in culture; type: cell-based
[4] = system: SARS‐CoV‐2 (hCoV‐19/Korea/KCDC06/2020, wild type); assay: microbe, parasite or virus in culture; type: cell-based
[5] = system: SARS‐CoV‐2; conditions: Vero E6; cited from earlier work
[6] = system: SARS-CoV-2 M^pro; conditions: cited from earlier work
[7] = cited from earlier work
[8] = target: SARS‐CoV‐2 M^pro (Severe acute respiratory syndrome coronavirus 2, UniProt P0DTD1); assay: SARS‐CoV‐2 main protease enzymatic assay (FRET inhibitor screening kit); type: biochemical; conditions: for inhibition at 5 µM: read-out: Inhibitionrate at @5μM
[9] = Severe acute respiratory syndrome coronavirus 2, Vero cells, with CP‐100356, read-out: EC50 ± SD, Vero cells, with P‐gp inhibitor
[10] = Severe acute respiratory syndrome coronavirus 2, Calu-3, Calu‐3 cells, with CP‐100356, read-out: EC50 ± SD, Calu‐3 cells, with P‐gp inhibitor
[11] = Severe acute respiratory syndrome coronavirus 2, Calu-3, Calu‐3 cells, without CP‐100356, read-out: EC50 ± SD, Calu‐3 cells, without P‐gp inhibitor
[12] = Severe acute respiratory syndrome coronavirus 2, Vero cells, without CP‐100356, read-out: EC50 ± SD, Vero cells, without P‐gp inhibitor
[13] = Severe acute respiratory syndrome coronavirus 2, Calu-3, Calu‐3 cells, racemate, enantiomers and […] measured in the same system, read-out: EC50, anti‐SARS‐CoV‐2 activity in Calu‐3 cells (Figure 3B)

Row | SMILES | CC50 at 2 day [1] | CC50 at 2 day ([2]; CC50, Calu‐3 cells, MTT assay) | EC50 [3, 9] | IC50 [8] | inhibition of M^pro enzymatic activity, first round of screening [8] | EC50 [4, 10] | EC50 [4, 11] | EC50 [3, 12] | inhibition at 5 µM [8] | also measured
1 | Cn1cnc(Cn2c(=O)[nH]/c(=N\c3cc4cn(C)nc4cc3Cl)n(Cc3cc(F)c(F)cc3F)c2=O)n1 [Ensitrelvir, reference compound] | > 100000 nM | > 100000 nM | – | – | – | – | – | – | – | EC50 ([3]; Severe acute respiratory syndrome coronavirus 2, Vero, read-out: EC50 ± SD, Vero cells, with P‐gp inhibitor): < 46 nM; EC50 ([3]; Severe acute respiratory syndrome coronavirus 2, Vero, read-out: EC50 ± SD, Vero cells, without P‐gp inhibitor): 165 ± 15 nM; EC50 ([4]; Severe acute respiratory syndrome coronavirus 2, Calu-3, read-out: EC50 ± SD, Calu‐3 cells, with P‐gp inhibitor): < 46 nM; EC50 ([4]; Severe acute respiratory syndrome coronavirus 2, Calu-3, read-out: EC50 ± SD, Calu‐3 cells, without P‐gp inhibitor): 110 nM; EC50 ([4]; read-out: EC50 ± SD, Calu‐3 cells, without P‐gp inhibitor): 112 ± 11 nM
2 | O=C(NCc1cccs1)C1CN(C(=O)c2cccnc2)CCN1c1ccc(Cl)c(Cl)c1 (stereo not drawn) [GC‐14, reference compound] | – | > 100000 nM | 3420 ± 443 nM | 800 nM and 750 nM | 98% | 755 ± 46 nM | 1420 ± 57 nM | – | – | EC50 [5]: 1100 nM; IC50 [6]: 400 nM; half‐life [7]: 1.72 h; oral bioavailability [7]: 7.2%
3 | Cc1cncc(C(=O)N2C[C@H]3CC[C@@H](C2)N3C(c2cccc(F)c2)c2cn(C[S+]([O-])c3ccccc3)nn2)c1 (stereo partly drawn) [Compound C5N41] | > 100000 nM | > 100000 nM | 2270 ± 89 nM | 243 ± 11 nM | 100% | 97 ± 5 nM | 1780 ± 1 nM | 3670 ± 513 nM | 92.3% | –
4 | Cc1cncc(C(=O)N2C[C@H]3CC[C@@H](C2)N3C(c2cccc(F)c2)c2cn(CCc3ccsc3)nn2)c1 (stereo partly drawn) [Compound C5N17] | > 100000 nM | > 100000 nM | 363 ± 29 nM | 177 ± 16 nM | 101% | 28 ± 2 nM | 166 ± 11 nM | 1570 ± 131 nM | 98.7% | CC50 at 2 day ([2]; CC50 (Table 3), Calu‐3 cells): > 100000 nM; EC50 [4, 13]: 200 ± 27 nM
5 | Cc1cncc(C(=O)N2C[C@H]3CC[C@@H](C2)N3C(c2cccc(F)c2)c2cn(CS(=O)(=O)c3ccccc3)nn2)c1 (stereo partly drawn) [Compound C5N42] | > 100000 nM | > 100000 nM | 3050 ± 206 nM | 196 ± 9 nM | 101% | 133 ± 19 nM | 1770 ± 55 nM | 3680 ± 952 nM | 96.2% | –
6 | CNC(=O)Cn1cc(C(c2cccc(F)c2)N2[C@@H]3CC[C@H]2CN(C(=O)c2cncc(C)c2)C3)nn1 (stereo partly drawn) [Compound C5N57] | > 100000 nM | > 100000 nM | > 10000 nM | 580 ± 5 nM | 96% | 2330 ± 66 nM | 4040 ± 986 nM | > 100000 nM | 85.1% | –
7 | Cc1cncc(C(=O)N2C[C@H]3CC[C@@H](C2)N3C(c2cccc(F)c2)c2cn(Cc3ccc(S(C)(=O)=O)cc3)nn2)c1 (stereo partly drawn) [Compound C5N50] | > 100000 nM | > 100000 nM | 6570 ± 430 nM | 2400 ± 100 nM | 90% | 2900 ± 263 nM | 17000 ± 778 nM | 36100 ± 1380 nM | 69% | –
8 | Cc1cncc(C(=O)N2C[C@H]3CC[C@@H](C2)N3C(c2cccc(F)c2)c2cn(Cc3cccc([N+](=O)[O-])c3)nn2)c1 (stereo partly drawn) [Compound C5N5] | > 100000 nM | > 100000 nM | 1850 ± 526 nM | 1230 ± 1 nM | 93% | 2560 ± 86 nM | 2860 ± 395 nM | 1790 ± 21 nM | 79.2% | –
9 | Cc1cncc(C(=O)N2C[C@H]3CC[C@@H](C2)N3C(c2cccc(F)c2)c2cn(CCN3C(=O)c4ccccc4C3=O)nn2)c1 (stereo partly drawn) [Compound C5N21] | > 100000 nM | > 100000 nM | 1380 ± 119 nM | 150 ± 4 nM | 100% | 259 ± 43 nM | < 1000 nM | 16200 ± 410 nM | 99.5% | EC50 ([4]; Calu‐3 cells, without CP‐100356, read-out: EC50 ± SD, Calu‐3 cells, without P‐gp inhibitor): 591 ± 11 nM
10 | Cc1cncc(C(=O)N2C[C@H]3CC[C@@H](C2)N3[C@@H](c2cccc(F)c2)c2cn(CCc3ccsc3)nn2)c1 [Compound C5N17A] | – | – | – | 3180 nM | – | – | – | – | 53.2% | CC50 at 2 day ([2]; CC50, column 9, after the Calu-3 EC50 columns): > 100000 nM; EC50 [4, 13]: 5950 nM

Reference: paper PMC11578313, “Miniaturized Modular Click Chemistry‐enabled Rapid Discovery of Unique SARS‐CoV‐2 M^pro Inhibitors With Robust Potency and Drug‐like Profile” (Advanced Science, 2024)
